From article PMC10293011, “An allosteric pan-TEAD inhibitor blocks oncogenic YAP/TAZ signaling and overcomes KRAS G12C inhibitor resistance” (Nature Cancer, 2023)

Target: T1, TEAD3 (Homo sapiens, UniProt Q99594)
T1 construct: with YAP peptide (amino acids 50–100)
Assay: TEAD3–YAP TR-FRET with purified protein (IC50); lipid displacement TR-FRET
Format: binding

T1 sequence (Q99594 216-435): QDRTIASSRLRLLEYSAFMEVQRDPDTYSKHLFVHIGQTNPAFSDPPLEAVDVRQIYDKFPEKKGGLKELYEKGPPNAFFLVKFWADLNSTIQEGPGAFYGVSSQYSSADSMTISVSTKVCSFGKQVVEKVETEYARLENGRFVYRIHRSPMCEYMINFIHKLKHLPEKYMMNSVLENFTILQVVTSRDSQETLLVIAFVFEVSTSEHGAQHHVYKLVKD
T1 sequence (P46937 50-100 partner): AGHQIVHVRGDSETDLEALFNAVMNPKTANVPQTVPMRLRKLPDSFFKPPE

IC50: 1.4 µM
Compound: CCOC(=O)c1cnn2c(=O)cc(-c3ccc(C(F)(F)F)cc3)[nH]c12 [compound 1]
